Source: patent publication US8293704B2, “Crystalline form of linaclotide” (priority 2009, dated 2012)
Bridge positions count the residues as written; N and C are the ends. Peptide text beside a SMILES is read from it.

Test: Solid-state chemical stability of amorphous and α-crystalline linaclotide (HPLC assay after storage at 40° C./75% RH)
Format: physicochemical
Settings: for Degradation Products / Normalized Assay / Acetylation Product / Hydrolysis Product / Non-disulfide linked multimers / Water-Mediated Products: induction sealed 45 cc HDPE bottles; for Remaining fraction (not assay, not degradation products), may comprise multimers: 3 months at 40° C./75% RH
Description: The relative chemical purity and stability of amorphous and crystalline linaclotide was studied using reverse phase high performance liquid chromatography (HPLC). The chemical identification was conducted using reverse phase high performance liquid chromatography coupled with mass spectroscopy (HPLC-MS). The mass spectroscopic analysis was performed at Enhance MS scan (EMS) mode with positive ionization and a scan range (m/z) of 600-1600.
A Perkin Elmer series 200 LC instrument (Perkin Elmer, Waltham, Mass.) was used with a YMC Pro C18 column (150 mm×3.0 mm, 3 μm) (Waters Corporation, Milford, Mass.). The column temperature was set at 40° C. while the auto sampler temperature was maintained at 4° C. using a peltier tray. The injection volume was 50 μl. A gradient (0.6 ml/minute) run was used comprising of two solvents; A (97.9% Water, 2% Acetonitrile, 0.1% Trifluoroacetic Acid) and B (94.9% Acetonitrile, 5% Water, 0.1% Trifluoroacetic Acid). The gradient was set according to the scheme described in Table 10. The effluent was detected at 220 nm using a UV detector.
The solid-state chemical stability of the α-crystalline form of linaclotide was then compared to that of amorphous form linaclotide. Known quantities of test materials were placed in 45 cc high-density polyethylene bottles. The bottles were induction sealed and placed in 40° C./75% RH stability chamber. Two bottles were then withdrawn at the time points of 2 weeks, at 1 month, at 2 months, and at 3 months, and were analyzed after adequate dilution for assay.

[1] = 3 months storage, 40° C./75% RH

Structure (SMILES) | Degradation Products (1 Month at 40° C./75% RH) | Normalized Assay (1 Month at 40° C./75% RH) | Degradation Products (2 Months at 40° C./75% RH) | Normalized Assay (2 Months at 40° C./75% RH) | Degradation Products (2 Weeks at 40° C./75% RH) | Normalized Assay (2 Weeks at 40° C./75% RH) | Degradation Products (3 Months at 40° C./75% RH) | Normalized Assay (3 Months at 40° C./75% RH) | Remaining fraction (not assay, not degradation products), may comprise multimers | Acetylation Product [1] | Hydrolysis Product [1] | Non-disulfide linked multimers [1] | Water-Mediated Products [1] | Degradation Products (Initial, solid state) | Normalized Assay (Initial, solid state) | Remaining fraction (not assay, not degradation products), may comprise multimers (listed as α-form linaclotide) | Acid-induced hydrolysis (in words) [1] | Concentration of degradation products compared with amorphous linaclotide (in words) (40° C./75% RH, up to 3 months) | Multimer formation compared with amorphous linaclotide (in words) (40° C./75% RH, up to 3 months) | Stability profile compared with amorphous linaclotide (in words) (40° C./75% RH, up to 3 months)
C[C@@H]1NC(=O)[C@@H]2CCCN2C(=O)[C@H](CC(N)=O)NC(=O)[C@@H]2CSSC[C@H](N)C(=O)N[C@H]3CSSC[C@H](NC1=O)C(=O)N[C@@H]([C@@H](C)O)C(=O)NCC(=O)N[C@H](C(=O)N[C@@H](Cc1ccc(O)cc1)C(=O)O)CSSC[C@H](NC(=O)[C@H](Cc1ccc(O)cc1)NC(=O)[C@H](CCC(=O)O)NC3=O)C(=O)N2 [Amorphous Linaclotide, linaclotide] (H-CCEYCCNPACTGCY-OH; disulfide 1-6, 2-10, 5-13) | 5.6 Wt % | 79.1 Wt % | 9.3 Wt % | 74.5 Wt % | 3.6 Wt % | 84.0 Wt % | 12.0 Wt % | 68.8 Wt % | 19.2% | 2.39 Wt % | 0.30 Wt % | 1.96 Wt % | 7.00 Wt % | 2.1 Wt % | 100.0 Wt % | – | – | – | – | –
C[C@@H]1NC(=O)[C@@H]2CCCN2C(=O)[C@H](CC(N)=O)NC(=O)[C@@H]2CSSC[C@H](N)C(=O)N[C@H]3CSSC[C@H](NC1=O)C(=O)N[C@@H]([C@@H](C)O)C(=O)NCC(=O)N[C@H](C(=O)N[C@@H](Cc1ccc(O)cc1)C(=O)O)CSSC[C@H](NC(=O)[C@H](Cc1ccc(O)cc1)NC(=O)[C@H](CCC(=O)O)NC3=O)C(=O)N2 [α-Crystalline Linaclotide, linaclotide] (H-CCEYCCNPACTGCY-OH; disulfide 1-6, 2-10, 5-13) | 3.8 Wt % | 91.9 Wt % | 5.1 Wt % | 89.7 Wt % | 2.6 Wt % | 94.8 Wt % | 7.5 Wt % | 88.4 Wt % | – | 0.31 Wt % | 5.70 Wt % | 0.07 Wt % | 0.40 Wt % | 2.4 Wt % | 100.0 Wt % | 4.1% | pronounced | significantly lower concentration of degradation products | significantly less multimer formation | substantially better stability profile than amorphous linaclotide
